US9809609B2, “Water-soluble benzoazepine compound and its pharmaceutical composition” (OTSUKA PHARMACEUTICAL CO., LTD., priority 2005, dated 2017)
≈ marks a conversion by molar mass, not a printed value. Marks after values point to notes of the source that are not given here. One block for each compound: values may come before it.

Legend:
[1] = Solubility of tolvaptan in Britton-Robinson buffer and purified water; type: physicochemical; conditions: thermodynamic from solid, shaken 4 hours
Protocol: Tolvaptan was added in excess to Britton-Robinson buffer (pH 2, pH 7, or pH 12) or purified water, and then shaken at 25° C.±1° C. for 4 hours. Each solution was filtered through a filter, and then, using HPLC, the solubility of tolvaptan was quantified by absolute calibration.

[2] = Solubility of salt of compound (1) in water at 37° C.; type: physicochemical; conditions: thermodynamic from solid, shaking at 37° C. for 30 minutes
Protocol: A suitable amount of test compound is added to a test tube, and 2.5 ml of water is added thereto. After shaking at 37° C. for 30 minutes, the mixture is filtered through a 0.45-μm membrane filter, and 0.5 ml of the filtrate is accurately weighed. Mobile phase is added thereto to make exactly 50 ml, preparing a test solution (dilution ratio: 100-fold). Approximately 5 mg of free-form authentic sample is accurately weighed, and acetonitrile is added thereto to make exactly 50 ml. A 2 ml of this liquid is accurately weighed, and mobile phase is added thereto to make exactly 20 ml, preparing a standard solution (equivalent to 10 μg/ml). By liquid chromatography under the following conditions, 20 μl of both the test solution and standard solution are tested to obtain the peak areas At and As of the test solution and standard solution. Concentration(μg/ml)=Ws/5×10×At/As×100=Ws×At/As×200 Ws: weighed amount of authentic sample (mg) Test Conditions • Detection: ultraviolet absorption photometer • (measurement wavelength: 254 nm) • Column: TOSOH TSKgel ODS-80Ts (0.46 cm×15 cm) • Column temperature: constant temperature of approximately 40° C. • Mobile phase: water/acetonitrile/trifluoroacetic acid=500/500/1 • Flow rate: 1 ml/min

[3] = Serum concentration of tolvaptan in female rats after tail-vein administration of a compound (1b) solution; type: in vivo; conditions: dose producing 1 mg of tolvaptan per kg of body weight
Protocol: A solution of compound (1b) (equivalent to 1 mg of tolvaptan per ml of solution) was prepared. [table] A 79 mg quantity of sodium dihydrogenphosphate•dihydrate and 5 g of mannitol were dissolved in about 90 ml of water for injection. A sodium hydroxide solution was added thereto, and a solution of pH 7 was prepared. Compound (1b) equivalent to 100 mg of tolvaptan was dissolved in this solution. A sodium hydroxide solution was added thereto, and the pH was adjusted to 7. […] This solution was rapidly administered to female rats via the tail vein at a dose such that 1 mg of tolvaptan is produced per kg of body weight. From time to time, blood was collected from the jugular vein under light ethyl ether anesthesia, and serum concentration of tolvaptan was determined by high-speed liquid chromatography (HPLC).

[4] = Solubility of compound (1b) in buffer solution (room temperature); type: physicochemical; conditions: for Solubility of compound (1b): crystals could not be added in excess; for solubility thermodynamic at 16 days: thermodynamic from solid, shaken 16 days

SMILES: Cc1ccccc1C(=O)Nc1ccc(C(=O)N2CCCC(OP(=O)([O-])[O-])c3cc(Cl)ccc32)c(C)c1.[Mg+2] (stereo not shown) [Example 7]
solubility at 30 min [2]: > 1 mg/mL

SMILES: Cc1ccccc1C(=O)Nc1ccc(C(=O)N2CCCC(OP(=O)([O-])O)c3cc(Cl)ccc32)c(C)c1.[K+] (stereo not shown) [Example 11]
solubility at 30 min [2]: > 1 mg/mL

SMILES: COP(=O)(NCCO)OC1CCCN(C(=O)c2ccc(NC(=O)c3ccccc3C)cc2C)c2ccc(Cl)cc21 (stereo not shown) [Example 20]
solubility at 30 min [2]: > 1 mg/mL

SMILES: Cc1ccccc1C(=O)Nc1ccc(C(=O)N2CCCC(OP(=O)([O-])O)c3cc(Cl)ccc32)c(C)c1.[Na+] (stereo not shown) [Example 8]
solubility at 30 min [2]: > 1 mg/mL

Second part, the compound after the results:

solubility thermodynamic at 4 h ([1]; aqueous buffer, Britton-Robinson buffer pH 2, 25° C.±1° C.): 0.0002 mg/mL (≈ 0.000445 mM) | solubility thermodynamic at 4 h ([1]; aqueous buffer, Britton-Robinson buffer pH 7, 25° C.±1° C.): 0.0003 mg/mL (≈ 0.000668 mM) | solubility thermodynamic at 4 h ([1]; aqueous buffer, Britton-Robinson buffer pH 12, 25° C.±1° C.): 0.0002 mg/mL (≈ 0.000445 mM) | solubility thermodynamic at 4 h ([1]; purified water, 25° C.±1° C.): 0.0002 mg/mL (≈ 0.000445 mM)
SMILES: Cc1ccccc1C(=O)Nc1ccc(C(=O)N2CCCC(O)c3cc(Cl)ccc32)c(C)c1 (stereo not shown) [tolvaptan, Tolvaptan]

Time at which tolvaptan was initially detected in serum after intravenous administration ([3]; rapid tail-vein administration of compound (1b) solution): five | Hydrolysis of compound (1b) into tolvaptan in rats ([3]; tail-vein administration): rapidly hydrolyzed into tolvaptan | melting point: 150 to 152 °C | Solubility of compound (1b) ([4]; Citric acid buffer (100 mM), pH before dissolution 8, pH after dissolution 4.2, room temperature): at least 8.3* w/v % | Solubility of compound (1b) ([4]; Sodium hydrogencarbonate buffer (100 mM), pH before dissolution 8, pH after dissolution 3.1, room temperature): at least 7.1* w/v % | Solubility of compound (1b) ([4]; Sodium phosphate buffer (100 mM), pH before dissolution 8, pH after dissolution 3.3, room temperature): at least 7.1* w/v % | Solubility of compound (1b) ([4]; Sodium phosphate buffer (100 mM), pH before dissolution 9, pH after dissolution 3.3, room temperature): at least 7.4* w/v % | Solubility of compound (1b) ([4]; Sodium phosphate buffer (100 mM), pH before dissolution 10, pH after dissolution 3.4, room temperature): at least 6.5* w/v % | Solubility of compound (1b) ([4]; Tris buffer (100 mM), pH before dissolution 9, pH after dissolution 3.4, room temperature): at least 6.3* w/v % | solubility thermodynamic at 16 days ([4]; Tris/HCl buffer, pH 8, aqueous buffer, Tris buffer (100 mM), pH before dissolution 8, pH after dissolution 2.9, room temperature): 7.4 mg/mL (≈ 14 mM) | solubility thermodynamic at 16 days ([4]; pH 5, aqueous buffer, Sodium phosphate buffer (100 mM), pH before dissolution 5, pH after dissolution 3.0, room temperature): 5.8 mg/mL (≈ 11 mM) | solubility thermodynamic at 16 days ([4]; pH 6, aqueous buffer, Sodium phosphate buffer (100 mM), pH before dissolution 6, pH after dissolution 3.0, room temperature): 13.1 mg/mL (≈ 24.8 mM) | solubility thermodynamic at 16 days ([4]; pH 7, aqueous buffer, Sodium phosphate buffer (100 mM), pH before dissolution 7, pH after dissolution 3.1, room temperature): 7.6 mg/mL (≈ 14.4 mM) | solubility at 30 min [2]: > 1 mg/mL
SMILES: Cc1ccccc1C(=O)Nc1ccc(C(=O)N2CCCC(OP(=O)(O)O)c3cc(Cl)ccc32)c(C)c1 (stereo not shown) [compound (1b)]
